In one series the target is uMEK/BRAF (Homo sapiens (Human), UniProt Q02750). Nature of the series: MEK-RAF Binding Assay (uMEK/BRAF HTRF). For orientation: Time-resolved FRET reads energy transfer from a long-lived donor to a nearby acceptor.
Series [1] can be described thus: Cassette pharmacokinetics studies in mice. The series is classed as in vivo. Particulars: male, Balb/c, plasma; Mouse, PO, 5 mg/kg. Here is the method:
Pharmacokinetics studies were conducted using cassette dosing protocols, with test compounds administered per mouse. Treatment groups were 3 mice (˜6-8 weeks old, ˜20-30 g Balb/c male mice) per route of administration. Compounds were formulated in 5% DMSO and 95% PEG400 with final concentrations of 0.5 mg/mL for IV and PO dosing. Compounds were dosed at 2 mg/kg for IV dosing and 5 mg/kg for PO dosing. Blood samples were withdrawn at 0.083, 0.25, 0.5, 1.0, 2.0, 4.0, 6.0, 8.0, and 24 hours following IV dosing, and 0.25, 0.5, 1.0, 2.0, 4.0, 6.0, 8.0, and 24 hours following PO dosing. Blood samples were centrifuged at 4,000 g for 5 minutes at 4° C. to obtain plasma samples. Plasma samples were diluted with acetonitrile containing internal standard, vortexed for 30 seconds, then centrifuged at 4,000 rpm for 15 minutes at 4° C. The supernatant was diluted with water, and compound concentration was determined by HPLC/MS/MS compared to calibration standards of 0.5-1,000 ng/mL.
Where route is listed as “IV*”, the compound was dosed IV at 1 mg/kg.

The subject of series [2] is Phosphorylation of ERK1/2 in AsPC1 cells. Briefly: 4 hour pERK1/2 HTRF Assay. The series is classed as cell-based. Particulars: Homo sapiens, ASPC1, read-out: pERK AsPC-1 HTRF (4 hour): Average IC50 (nM); AsPC-1, 4 hour. As to the method: AsPC1 cells were seeded at 20,000 cells/well overnight in 96-well plates, then treated with a 12-point dose response of compounds (Starting dose of 3000 nM and 3-fold dilution) for 4 hours. AsPC1 cells are a K-Ras mutant cell line. Phosphorylation of ERK1/2 on residues Thr202 and Tyr204 were detected using a Homogenous Time-Resolved Fluorescence (HTRF) assay (Cisbio Cat #64ERKPEG). Briefly, ERK phosphorylation was detected using a sandwich assay format using two phospho-ERK specific antibodies, one labelled with EU^3+-Cryptate (donor) and the second with d2 (acceptor). The Fluorescence Resonance Energy Transfer (FRET) towards the d2 acceptor was detected at a wavelength of 665 nm. ERK1/2 phosphorylation levels were normalized to total ERK1/2 protein levels in each well. IC50 values were determined by fitting a variable slope, four parameters curve to the compound concentration to normalized Phospho-ERK1/2 relationship.

With `CNS(=O)(=O)Nc1cc(Oc2c(C(=O)NC3CC3)c(Nc3ccc(I)cc3F)n(C)c(=O)c2C)ccc1Cl` [Compound I-19], the IC50 (usually the concentration needed to halve the response being measured) on uMEK/BRAF is 100 to 1000 nM.

In turn, `CNS(=O)(=O)Nc1cc(C)cc(Oc2c(C(=O)NC3CC3)c(Nc3ccc(I)cc3F)n(C)c(=O)c2C)c1` [Compound I-21] yielded an IC50 at uMEK/BRAF of 100 to 1000 nM.

Regarding `CNS(=O)(=O)Nc1cccc(Oc2c(C(=O)NC3CC3)c(Nc3ccc(I)cc3F)n(C)c(=O)c2C)c1C(F)(F)F` [Compound I-37], in series [1], the AUC(0-inf) (in general, the area under the concentration-time curve extrapolated to infinity) amounted to 12900 ng·h/mL; the AUC(0-t) – broadly, the area under the concentration-time curve up to a stated or last time point – stood at 12900 ng·h/mL; the concentration peaked (Cmax) at 1730 ng/mL; the Tmax (usually the time at which the peak concentration occurs) was determined as 1.7 h. In addition, the half-life (usually the time needed for the level to fall by half in the phase considered) in series [1] is 1.99 h.

As to `CNS(=O)(=O)Nc1c(F)ccc(Oc2c(C(=O)NC3CC3)c(Nc3ccc(I)cc3F)n(C)c(=O)c2C)c1Cl` [Compound I-38], the IC50 (on uMEK/BRAF; in series [2]) was under 100 nM throughout.

Consider `CNS(=O)(=O)Nc1cccc(Oc2c(C(=O)NCC3CC3)c(Nc3ccc(I)cc3F)n(C)c(=O)c2C)c1Cl` [Compound I-39], for which the IC50 (on uMEK/BRAF; in series [2]) was under 100 nM in each case.

`CNS(=O)(=O)Nc1cccc(Nc2c(C(=O)OC3CC3)c(Nc3ccc(I)cc3F)n(C)c(=O)c2C)c1Cl` [Compound I-47]: the IC50 in series [2] was under 100 nM.

Turning to `CNS(=O)(=O)Nc1ccc(Oc2c(C(=O)NC3CC3)c(Nc3ccc(I)cc3F)n(C)c(=O)c2C)c(Cl)c1` [Compound I-63], the IC50 (at uMEK/BRAF; in series [2]) was 100 to 1000 nM throughout.

In turn, `CNS(=O)(=O)Nc1ccc(Oc2c(C(=O)NC3CC3)c(Nc3ccc(I)cc3F)n(C)c(=O)c2C)cc1` [Compound I-64] had an IC50 at uMEK/BRAF of 100 to 1000 nM. Further, in series [2], the IC50 is 100 to 1000 nM. For the same compound, in series [1], the AUC(0-inf) stood at 505 ng·h/mL, the AUC(0-t) is 492 ng·h/mL, the concentration peaked (Cmax) at 231 ng/mL and the Tmax was 0.8 h. The compound further showed a half-life in series [1] of 2.1 h.

For the compound `CNS(=O)(=O)n1ccc2ccc(Oc3c(C(=O)NC4CC4)c(Nc4ccc(I)cc4F)n(C)c(=O)c3C)cc21` [Compound I-78], the IC50 was in the range of 100 to 1000 nM on uMEK/BRAF and 1000 to 10000 nM in series [2].

Take `CNS(=O)(=O)Nc1cccc(Oc2c(C(=O)N3CCC3)c(Nc3ccc(I)cc3F)n(C)c(=O)c2C)c1Cl` [Compound I-79]: the figures for the IC50 (on uMEK/BRAF; in series [2]) were 100 to 1000 nM and under 100 nM, respectively.

On to `Cc1c(Oc2cccc(N)c2Cl)c(C(=O)NC2CC2)c(Nc2ccc(I)cc2F)n(C)c1=O` [Compound I-86], for which the IC50 (at uMEK/BRAF; in series [2]) was under 100 nM throughout.

On to `CCc1c(Oc2cccc(NS(=O)(=O)NC)c2Cl)c(C(=O)NC2CC2)c(Nc2ccc(I)cc2F)n(C)c1=O` [Compound I-92], for which the IC50 in series [2] was in the range of 100 to 1000 nM.

On to `CNS(=O)(=O)Nc1ccnc(Oc2c(C(=O)NC3CC3)c(Nc3ccc(I)cc3F)n(C)c(=O)c2C)c1Cl` [Compound I-93], for which, in series [2], the IC50 was under 100 nM.

Consider `Cc1c(Oc2cccc(N(C3CC3)S(=O)(=O)NC3CC3)c2Cl)c(C(=O)NC2CC2)c(Nc2ccc(I)cc2F)n(C)c1=O` [Compound I-94], for which the IC50 in series [2] was 100 to 1000 nM.

Regarding `Cc1c(Oc2cccc(N(CC(F)(F)F)S(=O)(=O)NC3CC3)c2Cl)c(C(=O)NC2CC2)c(Nc2ccc(I)cc2F)n(C)c1=O` [Compound I-95], in series [2], the IC50 was under 100 nM.

In the case of `CNS(=O)(=O)Nc1cccc(Oc2c(C(=O)NC3CC3)c(Nc3ccc(I)cc3F)n(C)c(=O)c2C)n1` [Compound I-96], the IC50 in series [2] is 100 to 1000 nM.

As for `CNS(=O)(=O)N(CC(F)(F)F)c1cccc(Oc2c(C(=O)NC3CC3)c(Nc3ccc(I)cc3F)n(C)c(=O)c2C)c1Cl` [Compound I-97], the IC50 in series [2] was in the range of 100 to 1000 nM.

Turning to `CCN(c1cccc(Oc2c(C(=O)NC3CC3)c(Nc3ccc(I)cc3F)n(C)c(=O)c2C)c1Cl)S(=O)(=O)NC1CC1` [Compound I-98], in series [2], the IC50 lay in the range of 100 to 1000 nM.

For the compound `Cc1c(Oc2cccc(N(C)S(=O)(=O)NC3CC3)c2Cl)c(C(=O)NC2CC2)c(Nc2ccc(I)cc2F)n(C)c1=O` [Compound I-99], the IC50 in series [2] is under 100 nM.

Consider `CNS(=O)(=O)N(C)c1cccc(Oc2c(C(=O)NC3CC3)c(Nc3ccc(I)cc3F)n(C)c(=O)c2C)c1Cl` [Compound I-100], for which the IC50 in series [2] was under 100 nM.

Consider `CCN(C1CC1)S(=O)(=O)Nc1cccc(Oc2c(C(=O)NC3CC3)c(Nc3ccc(I)cc3F)n(C)c(=O)c2C)c1Cl` [Compound I-101], for which the IC50 in series [2] was under 100 nM.

With `Cc1c(Oc2cccc(NS(=O)(=O)N(C)C3CC3)c2Cl)c(C(=O)NC2CC2)c(Nc2ccc(I)cc2F)n(C)c1=O` [Compound I-102], the half-inhibitory concentration (IC50) in series [2] was under 100 nM.

In the case of `Cc1c(Oc2cccc(NS(=O)(=O)N3CCC3)c2C(F)(F)F)c(C(=O)NC2CC2)c(Nc2ccc(I)cc2F)n(C)c1=O` [Compound I-103], in series [2], the IC50 was under 100 nM.

Regarding `Cc1c(Oc2cccc(NS(=O)(=O)N3CC(F)C3)c2Cl)c(C(=O)NCC(F)(F)F)c(Nc2ccc(I)cc2F)n(C)c1=O` [Compound I-104], in series [2], the IC50 is under 100 nM.

On to `Cc1c(Oc2cccc(NS(=O)(=O)N(C)C)c2Cl)c(C(=O)NCC(F)(F)F)c(Nc2ccc(I)cc2F)n(C)c1=O` [Compound I-105], for which the IC50 in series [2] was under 100 nM.

On to `Cc1c(Oc2cccc(NS(=O)(=O)N3CCC3)c2Cl)c(C(=O)NCC(F)(F)F)c(Nc2ccc(I)cc2F)n(C)c1=O` [Compound I-106], for which the IC50 in series [2] is under 100 nM.

With `Cc1c(Oc2cccc(NS(=O)(=O)N3CC(F)C3)c2Cl)c(C(=O)NC2CC2)c(Nc2ccc(I)cc2F)n(C)c1=O` [Compound I-107], the IC50 in series [2] is under 100 nM.

Turning to `Cc1c(Oc2cccc(NS(=O)(=O)N3CCC3)c2Cl)c(C(=O)NC2CC2)c(Nc2ccc(I)cc2F)n(C)c1=O` [Compound I-108], the IC50 in series [2] is under 100 nM.

On to `CNS(=O)(=O)Nc1cccc(Oc2c(C(=O)NC3CC3)c(Nc3ccc(I)cc3F)n(C)c(=O)c2C)c1Cl` [Compound I-109], for which, in series [2], the IC50 is under 100 nM.

For the compound `CCN(CC)S(=O)(=O)Nc1cccc(Oc2c(C(=O)NC3CC3)c(Nc3ccc(I)cc3F)n(C)c(=O)c2C)c1Cl` [Compound I-110], the IC50 in series [2] was under 100 nM.

Consider `CCN(C)S(=O)(=O)Nc1cccc(Oc2c(C(=O)NC3CC3)c(Nc3ccc(I)cc3F)n(C)c(=O)c2C)c1Cl` [Compound I-111], for which the IC50 in series [2] was under 100 nM.

On to `Cc1c(Oc2cccc(NS(N)(=O)=O)c2Cl)c(C(=O)NC2CC2)c(Nc2ccc(I)cc2F)n(C)c1=O` [Compound I-112], for which the IC50 in series [2] was under 100 nM. Also, in series [1], the AUC(0-inf) is 5830 ng·h/mL, the AUC(0-t) amounted to 5370 ng·h/mL, the concentration peaked (Cmax) at 979 ng/mL and the Tmax was 1.3 h. Besides, in series [1], the half-life is 2.27 h.

For the compound `Cc1c(Oc2cccc(NS(=O)(=O)N(C)C)c2Cl)c(C(=O)NC2CC2)c(Nc2ccc(I)cc2F)n(C)c1=O` [Compound I-113], the IC50 in series [2] was under 100 nM.

For the compound `CNS(=O)(=O)Nc1ccnc(Oc2c(C(=O)NC3CC3)c(Nc3ccc(I)cc3F)n(C)c(=O)c2C)c1OC` [Compound I-115], the IC50 in series [2] was under 100 nM.

For the compound `CNS(=O)(=O)Nc1cncc(Oc2c(C(=O)NC3CC3)c(Nc3ccc(I)cc3F)n(C)c(=O)c2C)c1OC` [Compound I-116], in series [2], the IC50 lay within 1000 to 10000 nM.

`CCn1c(Nc2ccc(I)cc2F)c(C(=O)NC2CC2)c(Oc2cccc(NS(=O)(=O)NC)c2Cl)c(C2CC2)c1=O` [Compound I-117]: the IC50 in series [2] fell in the range of 1000 to 10000 nM.

On to `CNS(=O)(=O)Nc1cccc(Oc2c(C(=O)NCC[C@H](O)CO)c(Nc3ccc(I)cc3F)n(C)c(=O)c2C)c1Cl` [Compound I-118], for which the IC50 in series [2] is under 100 nM.

Regarding `CNS(=O)(=O)Nc1cccc(Oc2c(C(=O)NCC[C@@H](O)CO)c(Nc3ccc(I)cc3F)n(C)c(=O)c2C)c1Cl` [Compound I-119], the IC50 in series [2] is under 100 nM.

Consider `CCc1c(Oc2cccc(NS(=O)(=O)NC)c2Cl)c(C(=O)NC2CC2)c(Nc2ccc(I)cc2F)n(C2CC2)c1=O` [Compound I-120], for which, in series [2], the IC50 was in the range of 1000 to 10000 nM.

In the case of `CNS(=O)(=O)Nc1nccc(Oc2c(C(=O)NC3CC3)c(Nc3ccc(I)cc3F)n(C)c(=O)c2C)c1Cl` [Compound I-121], the IC50 in series [2] was under 100 nM.

On to `CNS(=O)(=O)Nc1cncc(Oc2c(C(=O)NC3CC3)c(Nc3ccc(I)cc3F)n(C)c(=O)c2C)c1Cl` [Compound I-122], for which the IC50 in series [2] lay in the range of 100 to 1000 nM.

For `CNS(=O)(=O)Nc1cccc(Oc2c(C(=O)N(C)C3CCC3)c(Nc3ccc(I)cc3F)n(C)c(=O)c2C)c1` [Compound I-133], in series [1], the AUC(0-inf) was 28 ng·h/mL, the AUC(0-t) is 27 ng·h/mL, the Cmax (commonly the highest concentration seen after dosing) worked out at 41.2 ng/mL and the Tmax was found to be 0.2 h. The same compound showed a half-life in series [1] of 0.4 h.

The compound “N-cyclopropyl-4-((2,2-dioxido-3,4-dihydro-1H-benzo[c][1,2,6]thiadiazin-7-yl)oxy)-2-((2-fluoro-4-iodophenyl)amino)-1,5-dimethyl-6-oxo-1,6-dihydropyridine-3-carboxamide [Compound I-14]” showed an IC50 on uMEK/BRAF of 100 to 1000 nM.

The values are drawn from US20230382863A1, “MEK INHIBITORS AND USES THEREOF” (Ikena Oncology, Inc., priority 2022, published 2023).
